Test results from PubChem BioAssay (NCI).
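A five-concentration, 48-hour dose response in 96-well plates underlies each endpoint, interpolated linearly between surrounding concentrations. TGI denotes the concentration required for complete inhibition of growth.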

Experiments:
Experiment in all cases: DTP human tumour cell line panel, 48 h
[1] = system: 786-0 renal
[2] = system: A498 renal
[3] = system: A549 NSCLC
[4] = system: ACHN renal
[5] = system: BT-549 breast
[6] = system: CAKI-1 renal
[7] = system: CCRF-CEM leukemia
[8] = system: COLO 205 colon
[9] = system: DU-145 prostate
[10] = system: EKVX NSCLC
[11] = system: HCC-2998 colon
[12] = system: HCT-116 colon
[13] = system: HCT-15 colon
[14] = system: HL-60(TB) leukemia
[15] = system: HOP-62 NSCLC
[16] = system: HOP-92 NSCLC
[17] = system: HS 578T breast
[18] = system: HT29 colon
[19] = system: IGROV1 ovarian
[20] = system: K-562 leukemia
[21] = system: KM12 colon
[22] = system: LOX IMVI melanoma
[23] = system: M14 melanoma
[24] = system: MCF7 breast
[25] = system: MDA-MB-231 breast
[26] = system: MDA-MB-435
[27] = system: MDA-N
[28] = system: MOLT-4 leukemia
[29] = system: NCI-H226 lung
[30] = system: NCI-H23 lung
[31] = system: NCI-H460 lung
[32] = system: NCI-H522 lung
[33] = system: NCI/ADR-RES ovarian
[34] = system: OVCAR-3 ovarian
[35] = system: OVCAR-4 ovarian
[36] = system: OVCAR-5 ovarian
[37] = system: OVCAR-8 ovarian
[38] = system: PC-3 prostate
[39] = system: RXF 393 renal
[40] = system: SF-268 CNS
[41] = system: SF-295 CNS
[42] = system: SF-539 CNS
[43] = system: SK-MEL-2 melanoma
[44] = system: SK-MEL-28 melanoma
[45] = system: SK-MEL-5 melanoma
[46] = system: SK-OV-3 ovarian
[47] = system: SN12C renal
[48] = system: SNB-19 CNS
[49] = system: SNB-75 CNS
[50] = system: SR leukemia
[51] = system: SW-620 colon
[52] = system: T-47D breast
[53] = system: TK-10 renal
[54] = system: U251 CNS
[55] = system: UACC-257 melanoma
[56] = system: UACC-62 melanoma
[57] = system: UO-31 renal
[58] = system: MALME-3M melanoma
[59] = system: RPMI-8226 leukemia

CCCCCCCCCCCCCCNC(=O)CCC(NC(=O)c1ccc(N(C)Cc2cnc3nc(N)nc(N)c3n2)cc1)C(=O)NCCCCCCCCCCCCCC (stereo not drawn)
TGI [1]: 52.1 µM
TGI [2]: 34.5 µM
TGI [3]: > 36.3 µM
TGI [4]: 30.1 µM
TGI [5]: 41.1 µM
TGI [6]: > 100 µM
TGI [7]: > 31.6 µM
TGI [8]: > 62.9 µM
TGI [9]: > 100 µM
TGI [10]: > 100 µM
TGI [11]: 19.8 µM
TGI [12]: > 100 µM
TGI [13]: 28.2 µM
TGI [14]: 0.758 µM
TGI [15]: 21.2 µM
TGI [16]: 63.8 µM
TGI [17]: 29.1 µM
TGI [18]: 27 µM
TGI [19]: 27.3 µM
TGI [20]: > 100 µM
TGI [21]: 18 µM
TGI [22]: > 100 µM
TGI [23]: > 40.4 µM
TGI [24]: 29.2 µM
TGI [25]: > 44.8 µM
TGI [26]: 25.6 µM
TGI [27]: 21.9 µM
TGI [28]: 27.3 µM
TGI [29]: > 100 µM
TGI [30]: 20.8 µM
TGI [31]: 13.1 µM
TGI [32]: 32.4 µM
TGI [33]: > 100 µM
TGI [34]: > 46 µM
TGI [35]: 40.9 µM
TGI [36]: > 48.3 µM
TGI [37]: 39.8 µM
TGI [38]: 22.5 µM
TGI [39]: 34.2 µM
TGI [40]: 22.4 µM
TGI [41]: 28.9 µM
TGI [42]: 16.3 µM
TGI [43]: > 61.9 µM
TGI [44]: 40.7 µM
TGI [45]: > 81.7 µM
TGI [46]: 28.3 µM
TGI [47]: 33.8 µM
TGI [48]: > 61.4 µM
TGI [49]: 34.8 µM
TGI [50]: 21.8 µM
TGI [51]: > 43 µM
TGI [52]: 38.5 µM
TGI [53]: > 86.2 µM
TGI [54]: 32.6 µM
TGI [55]: 35.4 µM
TGI [56]: 22.2 µM
TGI [57]: 53.6 µM

COc1ccc(N/N=C2\CCOc3ccc(C)cc3C2=O)cc1
TGI [1]: 41.8 µM
TGI [2]: > 100 µM
TGI [3]: > 100 µM
TGI [4]: > 100 µM
TGI [5]: 87.5 µM
TGI [6]: > 100 µM
TGI [7]: > 100 µM
TGI [8]: > 100 µM
TGI [9]: > 100 µM
TGI [10]: > 100 µM
TGI [11]: 97.5 µM
TGI [12]: > 100 µM
TGI [13]: 48.7 µM
TGI [14]: > 100 µM
TGI [15]: > 100 µM
TGI [16]: > 100 µM
TGI [17]: > 100 µM
TGI [18]: 61.1 µM
TGI [19]: > 100 µM
TGI [20]: > 100 µM
TGI [21]: > 100 µM
TGI [22]: 30.9 µM
TGI [23]: > 100 µM
TGI [58]: 38.7 µM
TGI [24]: > 100 µM
TGI [25]: > 100 µM
TGI [26]: 15.4 µM
TGI [27]: 22.3 µM
TGI [28]: 85.4 µM
TGI [29]: 90.7 µM
TGI [31]: 53.7 µM
TGI [32]: > 100 µM
TGI [33]: > 100 µM
TGI [34]: > 100 µM
TGI [35]: > 100 µM
TGI [36]: > 100 µM
TGI [37]: > 100 µM
TGI [38]: > 100 µM
TGI [59]: 84.1 µM
TGI [40]: > 100 µM
TGI [41]: > 100 µM
TGI [42]: > 100 µM
TGI [43]: 46 µM
TGI [44]: > 100 µM
TGI [45]: 50.6 µM
TGI [46]: 80.2 µM
TGI [47]: > 100 µM
TGI [48]: > 100 µM
TGI [50]: > 100 µM
TGI [51]: > 100 µM
TGI [52]: 42.4 µM
TGI [53]: > 100 µM
TGI [54]: 66 µM
TGI [55]: 54.6 µM
TGI [56]: 80.4 µM
TGI [57]: > 100 µM

CCOC(=O)C(SCCO)C(C(=O)OCC)n1cnc2c(=O)[nH]c(NC(C)=O)nc21 (stereo not drawn)
TGI [1]: > 100 µM
TGI [2]: > 100 µM
TGI [3]: > 100 µM
TGI [4]: > 100 µM
TGI [5]: > 100 µM
TGI [6]: > 100 µM
TGI [7]: > 100 µM
TGI [8]: > 100 µM
TGI [9]: > 100 µM
TGI [10]: > 100 µM
TGI [11]: > 100 µM
TGI [12]: > 100 µM
TGI [13]: > 100 µM
TGI [14]: > 100 µM
TGI [15]: > 100 µM
TGI [16]: > 100 µM
TGI [17]: > 100 µM
TGI [18]: > 100 µM
TGI [19]: > 100 µM
TGI [20]: > 100 µM
TGI [21]: > 100 µM
TGI [22]: > 100 µM
TGI [23]: > 100 µM
TGI [58]: > 100 µM
TGI [24]: > 100 µM
TGI [25]: > 100 µM
TGI [26]: > 100 µM
TGI [27]: > 100 µM
TGI [28]: > 100 µM
TGI [29]: > 100 µM
TGI [30]: > 100 µM
TGI [31]: > 100 µM
TGI [32]: > 100 µM
TGI [33]: > 100 µM
TGI [34]: > 100 µM
TGI [35]: > 100 µM
TGI [36]: > 100 µM
TGI [37]: > 100 µM
TGI [38]: > 100 µM
TGI [59]: > 100 µM
TGI [40]: > 100 µM
TGI [41]: > 100 µM
TGI [42]: > 100 µM
TGI [43]: > 100 µM
TGI [44]: > 100 µM
TGI [45]: > 100 µM
TGI [46]: > 100 µM
TGI [47]: > 100 µM
TGI [48]: > 100 µM
TGI [49]: > 100 µM
TGI [50]: > 100 µM
TGI [51]: > 100 µM
TGI [52]: > 100 µM
TGI [53]: > 100 µM
TGI [54]: > 100 µM
TGI [55]: > 100 µM
TGI [56]: > 100 µM
TGI [57]: > 100 µM

CC1(C)OC(=O)N(c2ccccc2)C12C=Cc1cc([N+](=O)[O-])cc([N+](=O)[O-])c1O2 (stereo not drawn)
TGI [1]: > 100 µM
TGI [2]: > 100 µM
TGI [3]: > 100 µM
TGI [4]: > 100 µM
TGI [5]: > 100 µM
TGI [6]: > 100 µM
TGI [7]: > 100 µM
TGI [8]: > 100 µM
TGI [9]: > 100 µM
TGI [10]: > 100 µM
TGI [11]: > 100 µM
TGI [12]: > 100 µM
TGI [13]: > 100 µM
TGI [14]: > 100 µM
TGI [15]: > 100 µM
TGI [16]: > 100 µM
TGI [17]: > 100 µM
TGI [18]: > 100 µM
TGI [19]: > 100 µM
TGI [20]: > 100 µM
TGI [21]: > 100 µM
TGI [22]: > 100 µM
TGI [23]: > 100 µM
TGI [24]: > 100 µM
TGI [25]: > 100 µM
TGI [26]: > 100 µM
TGI [27]: > 100 µM
TGI [28]: > 100 µM
TGI [29]: > 100 µM
TGI [30]: > 100 µM
TGI [31]: > 100 µM
TGI [32]: > 100 µM
TGI [33]: > 100 µM
TGI [34]: > 100 µM
TGI [35]: > 100 µM
TGI [36]: > 100 µM
TGI [37]: > 100 µM
TGI [38]: > 100 µM
TGI [59]: > 100 µM
TGI [39]: > 100 µM
TGI [40]: > 100 µM
TGI [41]: > 100 µM
TGI [43]: > 100 µM
TGI [44]: > 100 µM
TGI [45]: > 100 µM
TGI [46]: > 100 µM
TGI [47]: > 100 µM
TGI [48]: > 100 µM
TGI [49]: > 100 µM
TGI [50]: > 100 µM
TGI [51]: > 100 µM
TGI [52]: > 100 µM
TGI [53]: > 100 µM
TGI [54]: > 100 µM
TGI [55]: > 100 µM
TGI [56]: > 100 µM
TGI [57]: > 100 µM
